Read-outs that look alike come from different tables or passages of the source.
Columns and labels:
[1] = test system: Human glioma tumor cell with EGFRVIII mutation; experiment: CellTiter-Glo (CTG) cell viability, glioma cells; format: cell-based; conditions: 72 h of drug addition, read-out: Growth inhibition IC50, human glioma tumor cell with EGFRVIII mutation
Experimental: (§1) Cell viability of tumor cells and gliomas with EGFR-activated mutant (Exon 19 Del, PC-9 cell; Exon 21 L858R, H3255 cell) protein was detected using CellTiter-Glo (CTG) assay; approximately 5000 cells were placed in each blank of the 96-well plate. The diluted compound was added proportionally after 16 h and equilibrated at room temperature for 30 min after 72 h of drug addition. 100 µL of CellTiter-Glo reagent was added to each well and mixed well on an orbital shaker for 2 min to induce cell lysis. The plate was incubated at room temperature for 10 min to stabilize the luminous signal. The luminous signal was recorded on a TECAN Infinite M1000 Pro instrument.

P-glycoprotein = P-glycoprotein (Homo sapiens, UniProt P08183); experiment: P-glycoprotein efflux substrate test; format: in vitro ADME
P-glycoprotein, sequence (P08183 whole entry): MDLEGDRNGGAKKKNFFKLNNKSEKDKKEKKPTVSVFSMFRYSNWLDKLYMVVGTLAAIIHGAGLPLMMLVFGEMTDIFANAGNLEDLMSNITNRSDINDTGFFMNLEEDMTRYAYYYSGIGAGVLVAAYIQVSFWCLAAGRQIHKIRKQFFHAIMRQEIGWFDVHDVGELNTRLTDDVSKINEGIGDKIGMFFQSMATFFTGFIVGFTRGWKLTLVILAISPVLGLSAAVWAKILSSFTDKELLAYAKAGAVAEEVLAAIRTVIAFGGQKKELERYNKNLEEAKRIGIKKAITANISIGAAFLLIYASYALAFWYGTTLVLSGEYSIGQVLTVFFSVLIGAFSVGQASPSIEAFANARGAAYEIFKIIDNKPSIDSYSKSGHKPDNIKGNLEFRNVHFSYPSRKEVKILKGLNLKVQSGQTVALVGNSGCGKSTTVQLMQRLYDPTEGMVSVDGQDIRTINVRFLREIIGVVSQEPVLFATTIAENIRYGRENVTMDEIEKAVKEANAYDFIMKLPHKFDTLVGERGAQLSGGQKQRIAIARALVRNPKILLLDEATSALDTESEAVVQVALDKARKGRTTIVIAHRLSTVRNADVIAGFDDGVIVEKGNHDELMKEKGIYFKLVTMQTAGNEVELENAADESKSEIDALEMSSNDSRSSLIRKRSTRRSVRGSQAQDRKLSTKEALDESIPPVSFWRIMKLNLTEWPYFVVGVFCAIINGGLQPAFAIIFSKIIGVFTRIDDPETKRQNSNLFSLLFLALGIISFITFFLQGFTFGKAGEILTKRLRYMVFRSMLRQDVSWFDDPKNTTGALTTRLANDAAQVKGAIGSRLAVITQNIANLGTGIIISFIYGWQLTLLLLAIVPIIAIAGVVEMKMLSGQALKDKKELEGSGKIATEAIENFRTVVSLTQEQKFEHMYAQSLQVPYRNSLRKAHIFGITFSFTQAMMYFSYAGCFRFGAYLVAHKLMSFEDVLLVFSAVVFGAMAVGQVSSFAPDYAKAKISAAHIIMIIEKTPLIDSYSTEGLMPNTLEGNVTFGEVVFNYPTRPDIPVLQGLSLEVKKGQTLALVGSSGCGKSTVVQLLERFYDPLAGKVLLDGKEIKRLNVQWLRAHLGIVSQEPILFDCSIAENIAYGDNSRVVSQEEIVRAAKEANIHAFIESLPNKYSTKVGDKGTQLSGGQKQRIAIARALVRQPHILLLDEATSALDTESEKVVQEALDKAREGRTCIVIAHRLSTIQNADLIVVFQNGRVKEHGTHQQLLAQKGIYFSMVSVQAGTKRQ

[2] = target: T1, Breast cancer resistance protein (Homo sapiens, UniProt Q9UNQ0); experiment: Breast cancer resistance protein efflux substrate test; format: in vitro ADME
T1 sequence (Q9UNQ0 1-655): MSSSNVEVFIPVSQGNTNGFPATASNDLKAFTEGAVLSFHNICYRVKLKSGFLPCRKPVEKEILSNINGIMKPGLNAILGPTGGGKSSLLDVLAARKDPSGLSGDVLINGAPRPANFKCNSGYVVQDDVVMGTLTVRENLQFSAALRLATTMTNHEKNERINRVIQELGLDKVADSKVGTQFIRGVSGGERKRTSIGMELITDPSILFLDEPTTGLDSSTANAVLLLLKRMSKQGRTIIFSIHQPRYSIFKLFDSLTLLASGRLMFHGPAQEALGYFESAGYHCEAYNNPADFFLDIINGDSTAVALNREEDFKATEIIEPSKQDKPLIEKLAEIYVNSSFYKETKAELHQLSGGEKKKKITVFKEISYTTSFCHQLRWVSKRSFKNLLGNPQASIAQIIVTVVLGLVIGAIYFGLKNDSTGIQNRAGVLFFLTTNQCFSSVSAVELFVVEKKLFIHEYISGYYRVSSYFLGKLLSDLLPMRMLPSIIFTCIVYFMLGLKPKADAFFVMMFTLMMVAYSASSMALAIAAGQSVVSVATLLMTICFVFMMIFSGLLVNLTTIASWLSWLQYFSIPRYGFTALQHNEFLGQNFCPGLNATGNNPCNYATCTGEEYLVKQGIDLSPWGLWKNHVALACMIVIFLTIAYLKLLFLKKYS

[3] = Rate of crossing blood-brain barrier in rats; format: in vivo; conditions: 4 h after administration
Experimental: To determine whether (R)-6-((3,3-difluoro-1-methylpiperidin-4-yl)oxy)-N-(3-ethynyl-2-fluorophenyl)-7-methoxyquinazoline-4-amine prepared by the present disclosure is able to cross the blood-brain barrier (BBB), the test compound was administered to rats. After 4 h of administration, the rats were killed and blood and brain tissues were collected to test the compound concentration. Brain osmosis is defined as the ratio of the concentration of compounds in brain tissue to the concentration in plasma. The rate of crossing blood-brain barrier is the ratio of free drug concentration in brain tissue to free drug concentration in plasma. P-glycoprotein is an efflux protein at the blood-brain barrier that excretes P-glycoprotein substrate from the brain. Breast cancer resistance protein is an efflux protein at the blood-brain barrier that excretes […].

[4] = test system: patient's primary tumor tissue GBM (EGFRV3 mutated brain tumor); experiment: Survival in mouse intracranial PDX model; format: in vivo, mice; conditions: 30 mg/kg, PO, BID, treatment more than 50 d, FIG. 2
Experimental: The patient's primary tumor tissue GBM (brain tumor, about 50,000 cells) was seeded into the brain of mice. Administration began after the tumor grew for about 10 d and treatment lasted for more than 50 d. In the pharmacodynamic study of tumor transplanted animal model with EGFRV3 mutated brain tumor from patient's primary tumor tissue in mice, Group 1 was the control group (8 mice) without any medication. Group 2 received (R)-6-((3,3-difluoro-1-methylpiperidin-4-yl)oxy)-N-(3-ethynyl-2-fluorophenyl)-7-methoxyquinazoline-4-amine monotherapy group (8 mice), 30 mg/kg, PO, BID.

[5] = test system: PC-9 tumor cell (EGFR Del 19 mutation); experiment: CellTiter-Glo (CTG) cell viability, PC-9 cells; format: cell-based; conditions: Homo sapiens, 72 h of drug addition, read-out: Growth inhibition IC50, PC-9 tumor cell (EGFR Del 19 mutation)
Experimental: as §1

[6] = Pharmacokinetic study of rats (bioavailability); format: in vivo; conditions: rat, blood, 1-2 mg/kg iv vs 2-40 mg/kg PO
Experimental: In the pharmacokinetic study of rats, Group 1 (3 rats) was administrated with 1-2 mg/kg, iv, and Group 2 (3 rats) was administrated with 2-40 mg/kg, PO. Blood was sampled at 7 time points (0.25, 0.5, 1, 2, 4, 8 and 16 hours points) to measure the concentration of the quinazoline derivatives (I) prepared by the present disclosure in blood and calculate the peak area and half-life. Bioavailability is calculated as (peak area of oral drug/oral dose)/(peak area of intravenous drug/intravenous dose)×100%.

[7] = test system: H3255 tumor cell (EGFR L858R mutation); experiment: CellTiter-Glo (CTG) cell viability, H3255 cells; format: cell-based; conditions: Homo sapiens, NCI-H3255, 72 h of drug addition, read-out: Growth inhibition IC50, H3255 tumor cell (EGFR L858R mutation)
Experimental: as §1

EGFR enzyme = EGFR enzyme (Homo sapiens, UniProt P00533); experiment: EGFR enzyme ADP-Glo mechanism of action study (ATP titration); format: biochemical; conditions: PolyE4Y1 substrate, ATP diluted from 600 uM, FIG. 4
EGFR enzyme, sequence (P00533 25-1210): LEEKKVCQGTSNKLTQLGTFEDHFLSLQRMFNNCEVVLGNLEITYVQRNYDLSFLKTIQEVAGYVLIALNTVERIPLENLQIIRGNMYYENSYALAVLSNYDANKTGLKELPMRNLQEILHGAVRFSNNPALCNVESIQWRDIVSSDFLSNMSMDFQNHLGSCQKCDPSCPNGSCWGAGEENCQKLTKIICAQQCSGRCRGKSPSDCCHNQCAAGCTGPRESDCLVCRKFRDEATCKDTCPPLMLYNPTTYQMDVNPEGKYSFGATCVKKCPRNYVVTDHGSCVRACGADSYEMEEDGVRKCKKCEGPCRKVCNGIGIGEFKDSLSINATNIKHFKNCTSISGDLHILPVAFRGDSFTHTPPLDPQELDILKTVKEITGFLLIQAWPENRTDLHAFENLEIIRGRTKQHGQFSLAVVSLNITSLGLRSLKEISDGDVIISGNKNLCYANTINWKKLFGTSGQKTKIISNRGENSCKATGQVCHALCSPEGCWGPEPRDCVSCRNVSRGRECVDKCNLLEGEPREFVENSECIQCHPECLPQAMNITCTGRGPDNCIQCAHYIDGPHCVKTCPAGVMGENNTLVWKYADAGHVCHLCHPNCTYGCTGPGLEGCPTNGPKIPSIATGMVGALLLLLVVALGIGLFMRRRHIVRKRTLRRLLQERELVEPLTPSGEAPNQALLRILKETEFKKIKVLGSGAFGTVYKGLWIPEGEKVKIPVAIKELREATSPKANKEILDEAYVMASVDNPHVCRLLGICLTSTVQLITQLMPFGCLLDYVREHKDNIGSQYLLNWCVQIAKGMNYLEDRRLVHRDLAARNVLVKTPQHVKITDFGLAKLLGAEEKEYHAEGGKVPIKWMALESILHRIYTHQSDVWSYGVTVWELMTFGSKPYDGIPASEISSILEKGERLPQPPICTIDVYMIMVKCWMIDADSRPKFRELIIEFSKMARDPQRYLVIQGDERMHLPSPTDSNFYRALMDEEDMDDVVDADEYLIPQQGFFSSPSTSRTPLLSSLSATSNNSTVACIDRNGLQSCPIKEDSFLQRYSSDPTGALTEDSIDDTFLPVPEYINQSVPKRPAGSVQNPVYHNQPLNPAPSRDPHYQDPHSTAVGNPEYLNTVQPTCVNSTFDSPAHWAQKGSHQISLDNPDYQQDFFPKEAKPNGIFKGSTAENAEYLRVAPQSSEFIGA
Experimental: In the study of the mechanism of action of (R)-6-((3,3-difluoro-1-methylpiperidin-4-yl)oxy)-N-(3-ethynyl-2-fluorophenyl)-7-methoxyquinazoline-4-amine prepared by the present disclosure to inhibit EGFR, EGFR enzyme was added to a solution of PolyE4Y1 on a 384-well plate from 6 concentrations diluted at an equal ratio of 0.4 nM (2-fold) to 0.0125 nM and 0 concentration, and incubated for 15 min. ATP was added at 7 concentrations diluted at an equal ratio of 600 uM (2-fold) for reaction for 60 min, and then ADP-Glo reagent and detection reagent were added for 40 min to measure RLU signal. […] The benefits of this mechanism of action are obvious, with minimal side effects and anti-drug resistance.

[8] = test system: PC-9luc tumor cells (non-small cell lung cancer with Exon 19 Del); experiment: Survival in mouse model of intracranial meningeal metastasis; format: in vivo; conditions: PO, BID, PC-9luc seeded into brain of mice, FIG. 3
Experimental: PC-9luc tumor cells (non-small cell lung cancer with Exon 19 Del, about 2×10^5 cells) were seeded into the brain of mice, and administration was started approximately 11 days after tumor growth. Group 1 was the control group (8 mice), without any medication. Group 2 received Iressa (8 mice), 15 mg/kg, PO. Group 3 received (R)-6-((3,3-difluoro-1-methylpiperidin-4-yl)oxy)-N-(3-ethynyl-2-fluorophenyl)-7-methoxyquinazoline-4-amine monotherapy group (8 mice), 10 mg/kg, PO, BID. Group 4 received (R)-6-((3,3-difluoro-1-methylpiperidin-4-yl)oxy)-N-(3-ethynyl-2-fluorophenyl)-7-methoxyquinazoline-4-amine monotherapy group (8 mice), 3 mg/kg, PO, BID.

[9] = listed as -1-3,3-difluoro-1-methylpiperidin-4-yl)oxy)-N-(3-ethynyl-2-fluorophenyl)-7-metho

For `C#Cc1cccc(Nc2ncnc3cc(OC)c(O[C@@H]4CCN(C)CC4(F)F)cc23)c1F` [(R)-6-((3,3-difluoro-1-methylpiperidin-4-yl)oxy)-N-(3-ethynyl-2-fluorophenyl)-7-methoxyquinazoline-4-amine], the IC50 [1] was 10 nM, the P-glycoprotein efflux substrate (P-glycoprotein) was “No” and the P-glycoprotein efflux substrate (P-glycoprotein; [9]) was “not P-glycoprotein substrate”. The “Breast cancer resistance protein efflux substrate” value [2] was “No”, the “Breast cancer resistance protein efflux substrate” value [2, 9] was “not P-glycoprotein substrate or breast cancer resistance protein efflux substrate” and the “Rate of crossing blood-brain barrier (ratio of free drug concentration in brain tissue to free drug concentration in plasma)” value [3] was >50%. For the same molecule, the Kp at 4 h ([3]; rat, brain tissue and plasma (free drug concentrations), read-out: Rate of crossing blood-brain barrier (ratio of free drug concentration in brain tissue to free drug concentration in plasma)) was > 0.5, the “Survival compared to control group” value [4] was “significantly prolonged” and the IC50 [5] was 8 nM. The bioavailability [6] was > 35%, the IC50 [7] was 2 nM and the “Mechanism of action of EGFR inhibition” value (EGFR enzyme) was “non-ATP competitive”. For the same molecule, the Survival ([8]; Group 3, 10 mg/kg) was “significantly improved” and the Survival ([8]; Group 4, 3 mg/kg) was “significantly improved”.
